# Experimental data as given in US20250101383A1, “METHODS AND COMPOSITIONS FOR CARDIAC MODELS” (Sanford Burnham Prebys Medical Discovery Institute, priority 2023, published 2025).
# What was measured:
# [1] = system: Drosophila heart; assay: Octopamine-challenge heart assay; type: in vivo; settings: for mean nMAD (arrhythmia) post-octopamine pacing: 100 nM OA
# Source text: Cardiac phenotypes of middle-aged (3-weeks old) female flies from each cross were characterized using denervated, semi-intact preparations as previously described in (Ocorr et al., 2009; Vogler and Ocorr, 2009). Briefly, hearts from 20-25 flies were examined for each genotype and age. Adult female flies were exposed to FlyNap, a triethylamine-based anesthetic, for at least one minute until no movement was detected. Hearts were exposed by dissection in room temperature, air bubbled, artificial hemolymph (AHL, Ocorr et al, 2007). High-speed video recordings were filmed with a Hamamatsu EM-CCD camera and using HC Image capture software (Hamamatsu Corp). Heart movements were analyzed using the Semi-automated Optical Heartbeat Analysis (SOHA) software (sohasoftware.com). Movies were recorded at speeds of 140+ fps with pixel resolution ˜ 1 micron/pixel allowing very precise temporal and spatial measurements, including heart period (HP) and rate (1/HP), diastolic and systolic intervals, and fractional shortening/contractility. To quantitate arrhythmia, median absolute deviation (MAD) was first calculated. The median value of the absolute deviations of each heart period (Xi) from the median heart period ((X)) was calculated and then multiplied by a constant (k=1.4826 assuming data is normally distributed).
# To normalize the MAD index (nMAD), the MAD value was divided by the median heart period. Qualitative records of heart wall movements (M-modes/kymographs) were produced by electronically excising a 1 pixel horizontal “slice” from each movie frame and aligning them horizontally providing an edge trace displaying heart wall movements in the X-axis over time along the Y-axis (Ocorr et al., 2009; Ocorr et al., 2007c).
# Octopamine (OA) pacing experiments were performed in situ on the semi-intact fly preparation. OA (Sigma-Aldrich #00250) stock solution (10 mM) was freshly prepared by dissolving in water and was further diluted in AHL. A dose-response curve was generated using doses ranging from 0.1 nM OA to 500 nM OA (Supplemental FIG. 5A). The increase in heart rate was maximal at 100 nM OA, which was the dose used for all subsequent pacing experiments (Supplemental FIG. 5B). Following dissection, hearts were first allowed to equilibrate in fresh AHL for 15 min and 30 sec movies of heart function were recorded. Heart function was recorded three times per fly: 1) pre-drug exposure, 2) after a 15-minute exposure to 100 nM OA, and 3) after a 15-minute post drug exposure recovery period. A second set of hearts exposed only to vehicle (AHL) were filmed at the same three 15-minute intervals to serve as time controls.
# [2] = system: hiPSC-ACMs (atrial-like cardiomyocytes); assay: Arrhythmia assay and drug treatment in ACMs (arrhythmia index, AI); type: cell-based, human; settings: for percentage of cells with AI values >20: control 4%
# Method: To test the platform's ability to identify APD modulators, ACMs of the present disclosure were infused with isoproterenol, a non-selective β-adrenergic agonist, known to both shorten APD and increase beat rate in hiPSC-CMs. […] Consistent with median APD75 values, escalating doses of isoproterenol (1 and 9 μM) led to an increase of APD75 KS-D value to ˜0.4 and 0.7 respectively, as compared to control (FIG. 5C). Similarly, to quantify cellular manifestations of arrhythmia, an arrhythmia index (AI) was developed that quantifies beat-to-beat interval irregularities as a metric for arrhythmically beating cells (FIG. 9). In this context, AP trains with AI values lower than 20 were determined to describe regular beating patterns, while AP train with AI values >20 mark were determined to describe irregular beating patterns (FIGS. 10A-E). Finally, to benchmark the platform for arrhythmia-associated phenotypes, the role of dofetilide, a class III anti-arrhythmic that selectively blocks the rapid component of the delayed rectifier outward potassium, was tested.
# 24 hours post-transfection, 2,000 primary human fibroblasts were added per well to the hiPSC-ACMs. 48 hours later (the day of the imaging), cells were dyed with the voltage sensitive dye Vf2.1 Cl as described above, then treated with 50 μL of 2× solution of isoproterenol (1 μM final) diluted in Tyrode alone and in combination with 2× solution of Verapamil (30 nM final), diluted in Tyrode at the 5th wash. After 20 minutes of compound incubation time, cells were imaged, and single-cell traces analyzed as described previously.
# [3] = system: hiPSC-ACMs (atrial-like cardiomyocytes); assay: Voltage assay in ACMs (single-cell APD); type: cell-based, human; settings: for median APD75: untreated 121.3 ms
# Source text: Next, to facilitate the characterization of AF-associated arrhythmia phenotypes in ACMs, an imaging platform was developed that automatically tracks and quantifies action potential (AP) and rhythm parameters in HT with single cell resolution (FIGS. 4A-D). To retrieve AP and rhythm parameters, ACMs of the present disclosure were co-labeled with a voltage dye (VF2.1Cl) and a nuclear dye (Hoechst 33258) (McKeithan et al., 2017). For each condition, one image of the Hoechst dye was collected followed by a 5-second acquisition of the voltage dye channel at 100 Hz. Next, using a custom algorithm developed on the ImageXpress®, each cell in the field of view was segmented using the Hoechst topological information and each cell mask was propagated to the “voltage dye channel”, thereby enabling the quantification of voltage-dependent fluorescence variation over time with single-cell resolution. To retrieve the electrophysiological parameters, a cloud-based trace analysis application was developed that automatically processes each AP trace and retrieves median and standard deviation values, for APD-10, 25, 50, 75, 90; T25-75, T75-25; Vmax up and down; beat rate; peak-to-peak interval; and rhythm regularity index; for each cell. This platform enabled the automatic recording, quantification, and analysis of AP and rhythm parameters in less than 2 minutes per condition.
# Voltage assay was performed using the labeling protocol described herein. Briefly, hiPSC-ACMs at day 25 of differentiation were dissociated with TrypLE Select 10× for up to 10 min and the action of TrypLE was neutralized with RPMI supplemented with 10% FBS. Cells were resuspended in RPMI with 2% KOSR (Gibco) and 2% B27 50× with vitamin A (Life Technologies) supplemented with 2 μM Thiazovivin and plated at a density of 6,000 cells per well in a Matrigel-coated 384-well plate. hiPSC-ACMs were then transfected with siRNAs directed against AFib-associated genes (ON-TARGETplus Human, siGATA4: J-008244-05-0002, siGATA5: J-010324-06-0005, siGATA6: J-008351-06-0005, siGJA1: J-011042-05-0002, siGJA5: J-017368-05-0002, siHAND2: J-008698-06-0005, siHCN4: J-006203-05-0002, siKCNA5: J-006215-06-0005, siKCND3: L-006226-00-0005, siKCNJ5: J-006250-06-0002, siKCNN3: J-006270-06-0002, siNKX2-5: J-019795-07-0002, siNKX2-6: J-025793-17-0002, siNPPA: J-012729-05-0002, siPITX2: J-017315-05-0005, siPLN: J-011754-05-0005, siSH3PXD2A: J-006657-07-0002, siSYNE2: J-019259-09-0002, siTBX5: J-013410-5-0002, siZFHX3: J-015410-5-0002) using lipofectamine RNAi Max (ThermoFisher). […] Fluorescence over time quantification and trace analysis were quantified using custom software packages. […]
# [4] = system: Id1-induced CPs; assay: Generation of atrial-like cardiomyocytes from Id1-induced cardiac progenitors; type: cell-based, human; settings: retinoic acid 300 nM single dose, day 12
# Method: To study the molecular basis of chamber-specific electrical disorders such as atrial fibrillation, Id1-overexpressing cardiac progenitors (CPs) were used to generate ACMs (Cunningham et al., 2017, and Yu et al., 2018). Treatment of Id1-induced CPs with a single dose of retinoic acid (300 nM) efficiently promoted the generation of atrial-like, NR2F2+ beating CMs (˜80% were NR2F2+, ACTN2+) (FIG. 1 and FIGS. 2A-B). Consistent with an atrial-like identity, induced ACMs also expressed atria-enriched (Devalla et al., 2015; Uhlen et al., 2015) transcription factors (NR2F2, TBX5, ZNF385B), ion channel genes KCNA5 (encoding Kv1.5) and KCNJ3 (encoding Kir 3.1), ligands (NPPA, NPPB) and receptors (EGR1/2, PDGFRA), at both day 12 and at day 25 of differentiation (FIG. 2C and FIGS. 6A-B).
# ACMs for the study were developed by dissociating Id1 overexpressing hiPSCsl with 0.5 mM EDTA (ThermoFisher Scientific) in PBS without CaCl2 and MgCl2 (Corning) for 7 min at room temperature. hiPSC were resuspended in mTeSR-1 media (StemCell Technologies) supplemented with 2 μM Thiazovivin (StemCell Technologies) and plated in a Matrigel-coated 12-well plate at a density of 3×10^5 cells per well. […]
# [5] = acute OA exposure, control and KD lines
smiles,measurement,setting,value
NCC(O)c1ccc(O)cc1 (stereo not shown) [octopamine],mean nMAD (arrhythmia) post-octopamine pacing,[1]; PLN/SclA KD hearts,0.1342
same,mean nMAD (arrhythmia) post-octopamine pacing,[1]; control hearts,0.0379
same,heart rate,[1]; [5],significantly elevated heart rate
same,systolic intervals,[1]; [5],significantly shortening systolic intervals
same,dose of maximal effect on heart rate,[1]; doses 0.1 nM to 500 nM OA,100 nM
same,contraction and relaxation intervals,[1]; in the presence of OA,significantly shortened
COc1ccc(CCN(C)CCCC(C#N)(c2ccc(OC)c(OC)c2)C(C)C)cc1OC (stereo not shown) [verapamil],fold less arrhythmic than DMSO control,"[2]; verapamil 30 nM, PLN KD+Fib+isoproterenol",1.7 fold
same,percentage of arrhythmic cells,"[2]; verapamil 30 nM, PLN KD+Fib+isoproterenol, DMSO control 31.2%",18%
CC(C)NCC(O)c1ccc(O)c(O)c1 (stereo not shown) [isoproterenol],percentage of arrhythmic cells,[2]; isoproterenol alone,did not increase
same,APD75 KS-D value as compared to control,[3]; isoproterenol 1 μM,~0.4
same,median APD75,[3]; isoproterenol 1 μM,108.6 ms
same,APD75 KS-D value as compared to control,[3]; isoproterenol 9 μM,0.7
same,median APD75,[3]; isoproterenol 9 μM,91.2 ms
CN(CCOc1ccc(NS(C)(=O)=O)cc1)CCc1ccc(NS(C)(=O)=O)cc1 [dofetilide],proportion of arrhythmic cells (AI>20),"[2]; dofetilide 33 nM, control 4.0%",3.9%
same,KS-D value of AI distribution vs control,[2]; dofetilide 100 nM,0.7
same,percentage of cells with AI values >20,[2]; dofetilide 100 nM,67%
same,percentage of cells with AI values >20,"[2]; dofetilide 100 nM, listed as Dofetilide",67.0%
same,AI as compared to control,[2]; low dose of dofetilide (33 nM),reduced AI
CC1=C(/C=C/C(C)=C/C=C/C(C)=C/C(=O)O)C(C)(C)CCC1 [retinoic acid],"NR2F2+, ACTN2+ cells",[4],~80%
